Data as given in ChEMBL document CHEMBL3046884, “Optical Resolution and Biological Activities of S-23121, a New Cereal Herbicide” (Agric Biol Chem, 1991).

Tested on: Cucumis sativus
Assay: Induction of membrane damage in Cucumis sativus (cucumber) cotyledon disks assessed as compound level causing […] ethane production incubated under white light for 24 hr at 20 degC
Type: functional

| Structure (SMILES) | Activity [nM] |
| --- | --- |
| C#C[C@H](C)Oc1cc(N2C(=O)C3=C(CCCC3)C2=O)c(F)cc1Cl [(S)-S-23121] | 21 |
| C#C[C@@H](C)Oc1cc(N2C(=O)C3=C(CCCC3)C2=O)c(F)cc1Cl | 178 |
